For seven molecules, IC50 results are on record in BindingDB's records for doi:10.1016/j.bmcl.2004.03.090 (Johnson & Johnson Pharmaceutical Research & Development, 2004).

The target of the test is Glycogen synthase kinase-3 beta (Oryctolagus cuniculus). As to the kind of experiment: Inhibitory concentration against rabbit glycogen synthase kinase-3 beta using protein phosphatase inhibitor-2 as substrate.

A word on the IC50: it is the midpoint of a concentration-inhibition curve. High values mean lower potency, low ones higher potency. In turn, `CCn1cc(C2=C(c3cn(CCCO)c4ncccc34)C(=O)NC2=O)c2cccnc21` [3-(1-Ethyl-1H-pyrrolo[2,3-b]pyridin-3-yl)-4-[1-(3-hydroxy-propyl)-1H-pyrrolo[2,3-b]pyridin-3-yl]-pyrrole-2,5-dione] yielded an IC50 of 65 nM. For `O=C1NC(=O)C(c2cn(CCCO)c3ncccc23)=C1c1ccc(F)cc1Cl` [3-(2-Chloro-4-fluoro-phenyl)-4-[1-(3-hydroxy-propyl)-1H-pyrrolo[2,3-b]pyridin-3-yl]-pyrrole-2,5-dione], half-maximal inhibition (IC50) required 6 nM. Consider `COc1ccccc1C1=C(c2cn(CCCNS(N)(=O)=O)c3ncccc23)C(=O)NC1=O` [3-(7-Azaindolyl)-4-arylmaleimide analogue], for which it took 20 nM to reach half-maximal inhibition (IC50).

`O=C1NC(=O)C(c2cn(CCCO)c3ncccc23)=C1c1cccc2ccccc12` [3-[1-(3-Hydroxy-propyl)-1H-pyrrolo[2,3-b]pyridin-3-yl]-4-naphthalen-1-yl-pyrrole-2,5-dione] displayed an IC50 of 31 nM. In turn, `O=C1NC(=O)C(c2cn(CCCO)c3ncccc23)=C1c1ccccn1` [3-[1-(3-Hydroxy-propyl)-1H-pyrrolo[2,3-b]pyridin-3-yl]-4-pyridin-2-yl-pyrrole-2,5-dione] yielded an IC50 of 480 nM. In the case of `COc1ccccc1C1=C(c2cn(CCCNC=O)c3ncccc23)C(=O)NC1=O` [N-(3-{3-[4-(2-Methoxy-phenyl)-2,5-dioxo-2,5-dihydro-1H-pyrrol-3-yl]-pyrrolo[2,3-b]pyridin-1-yl}-propyl)-formamide] it was 8 nM; in that of `COc1ccccc1C1=C(c2cn(CCCNS(C)(=O)=O)c3ncccc23)C(=O)NC1=O` [N-(3-{3-[4-(2-Methoxy-phenyl)-2,5-dioxo-2,5-dihydro-1H-pyrrol-3-yl]-pyrrolo[2,3-b]pyridin-1-yl}-propyl)-methanesulfonamide], 14 nM.
